The text below walks through data of paper PMC3934957, “A Porphodimethene Chemical Inhibitor of Uroporphyrinogen Decarboxylase” (PLoS ONE, 2014).

The target in the experiment is T1, uroporphyrinogen decarboxylase (UROD) (Homo sapiens, UniProt P06132).
T1 construct: recombinant UROD (GenBank BC001778) with 5'-histidine tag and thrombin cleavage site
T1 sequence (P06132 1-367): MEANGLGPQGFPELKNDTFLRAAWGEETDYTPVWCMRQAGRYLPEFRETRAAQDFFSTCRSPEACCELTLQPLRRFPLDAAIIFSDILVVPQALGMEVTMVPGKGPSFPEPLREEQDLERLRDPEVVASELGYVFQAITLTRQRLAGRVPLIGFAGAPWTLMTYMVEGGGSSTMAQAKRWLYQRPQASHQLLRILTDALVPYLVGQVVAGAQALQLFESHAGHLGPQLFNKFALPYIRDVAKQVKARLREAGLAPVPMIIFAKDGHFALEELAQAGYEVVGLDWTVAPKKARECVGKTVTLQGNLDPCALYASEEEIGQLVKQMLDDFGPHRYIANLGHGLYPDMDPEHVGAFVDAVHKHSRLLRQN
Put plainly: Recombinant UROD enzyme assay with RP-HPLC fluorescence detection of uroporphyrin/coproporphyrin ([…] UROD, […] uroporphyrinogen). Format: biochemical.

Turning to `CC1=C(CCC(=O)O)C2=Cc3[nH]c(c(C)c3CCC(=O)O)C(C)(C)C3=NC(=Cc4[nH]c(c(C)c4CCC(=O)O)C(C)(C)C1=N2)C(CCC(=O)O)=C3C` [PI-16], the IC50 came to 9.9 µM.

By IC50 is commonly meant the concentration needed to halve the response being measured.
